Article PMC6198970, “Safety, efficacy, and dose response of the maturation inhibitor GSK3532795 (formerly known as BMS-955176) plus tenofovir/emtricitabine once daily in treatment-naive HIV-1-infected adults: Week 24 primary analysis from a randomized Phase IIb trial” (PLoS ONE, 2018)
pEC50, pIC50: −log10 of the molar value. Values joined by “and” are separate entries in the source; they are usually repeats but may differ in a detail not shown here. Equal values may be shown once. Read-outs that look alike come from different tables or passages of the source.

What was measured:
HIV-1 [1] = assay: Protocol-defined virologic failure and drug resistance testing (GenoSure MG, PhenoSense); format: in vivo, HIV-1-infected adults; settings: through Week 24
Description: PDVF was defined as either: (1) confirmed HIV-1 RNA ≥40 copies/mL at any time after prior confirmed suppression to <40 copies/mL; or (2) a confirmed >1 log10 copies/mL above the nadir level. Genotypic information required for screening was generated using the GenoSure® MG assay; genotypic information and phenotypic observations during the treatment period were generated using the PhenoSense® combination resistance test.

[2] = Adverse events through Week 24; format: in vivo, HIV-1-infected adults
Experimental: Physical examinations, measurement of vital signs, and clinical laboratory evaluations were performed at Weeks 4, 8, 12, 16 and 24, and participants were closely monitored for AEs and SAEs throughout. AEs were classified according to MedDRA version 19.0. The severity and relationship to study drug was assessed by the local investigator.

[3] = Intensive PK, non-compartmental analysis and dose proportionality; format: in vivo, HIV-1-infected adults
Experimental: Due to the EFV component of the blinded drug regimens, administration of study drug required both morning and evening dosing,12 hours apart. […] All bioanalytical analyses were conducted by PPD® Laboratories using validated high-performance liquid chromatography/mass spectroscopy assays. Intensive plasma GSK3532795 concentrations were analyzed by non-compartmental analysis using the actual sampling times in WinNonlin version 6.3.0 (Pharsight, St. Louis, Missouri, USA). […] To assess the dose proportionality of GSK3532795 when co-administered with TDF/FTC, a mixed-effect model with log-transformed dose as the fixed effect and each participant as the random effect was used to fit a power model in SAS version 9.1.3.

93 subtype B viruses = tested on: 93 subtype B viruses; parameters: method as in protocol Section 1.4.1.2; settings: ref protocol Section 1.4.1.2, read-out: EC50, median; cited from earlier work
HIV-1 clinical isolates = settings: cited from earlier work
[4] = parameters: method as in protocol Section 1.4.1.2; settings: 100% human serum; ref protocol Section 1.4.1.2; listed as BMS-955176; cited from earlier work
[5] = tested on: HIV-1 with A364V or V362I plus secondary changes; parameters: method as in protocol Section 1.4.1.2; settings: ref protocol Section 1.4.1.2, cited from earlier work
HIV-1 protease = tested on: HIV-1 protease; parameters: method as in protocol Section 1.4.1.2; settings: ref protocol Section 1.4.1.2; cited from earlier work
CYP3A4 = tested on: CYP3A4; parameters: method as in protocol Section 1.4.1.2; settings: ref protocol Section 1.4.1.2; cited from earlier work
P-gp = tested on: P-gp; parameters: method as in protocol Section 1.4.1.2; settings: ref protocol Section 1.4.1.2; cited from earlier work
OATP1B3 = tested on: OATP1B3; parameters: method as in protocol Section 1.4.1.2; settings: ref protocol Section 1.4.1.2; cited from earlier work
[6] = tested on: P gp, NTCP, OAT1, OAT3, MRP2, BSEP; parameters: method as in protocol Section 1.4.1.2; settings: ref protocol Section 1.4.1.2; cited from earlier work
[7] = parameters: method as in protocol Section 1.4.1.2; settings: ref protocol Section 1.4.1.2; cited from earlier work
[8] = molecular target: broad range of enzymes, transporters, and receptors, including cardiac ion channels; parameters: method as in protocol Section 1.4.1.2; settings: ref protocol Section 1.4.1.2; read-out: IC50 or EC50 for in vitro off-target interactions; cited from earlier work
[9] = parameters: method as in Study AI468034; settings: 120 mg MC tablet; ref Study AI468034; cited from earlier work
[10] = parameters: method as in Study AI468049; settings: 180 mg MC tablet, preliminary, ref Study AI468049, cited from earlier work
cytochrome P450 (CYP)3A4 = tested on: cytochrome P450 (CYP)3A4; parameters: method as in protocol Section 1.4.1.2; settings: ref protocol Section 1.4.1.2; cited from earlier work
[11] = tested on: reverse transcriptase (RT), protease, and integrase inhibitor-resistant viruses; settings: cited from earlier work
HIV-1 [12] = settings: 40% HS supplemented with additional human serum albumin; ref protocol Section 1.4.1.2; cited from earlier work
[13] = tested on: mouse P-glycoprotein (P-gp); settings: higher bioavailability in P-gp knock-out mice / with elacridar; ref protocol Section 1.4.1.2; cited from earlier work
[14] = cited from earlier work
[15] = 10 mg/kg/day; ref protocol Section 1.4.1.2; cited from earlier work
[16] = cited from earlier work; remark: listed apart in the source
[17] = cited from earlier work; remark: listed apart in the source
[18] = GSK3532795: range across 60, 120, 180 mg arms, EFV 600 mg
[19] = GSK3532795 arms pooled, EFV 600 mg, abstract

C=C(C)[C@@H]1CC[C@]2(NCCN3CCS(=O)(=O)CC3)CC[C@]3(C)[C@H](CC[C@@H]4[C@@]5(C)CC=C(c6ccc(C(=O)O)cc6)C(C)(C)[C@@H]5CC[C@]43C)[C@@H]12 [GSK3532795]
Rate of protocol-defined virologic failure (PDVF) (HIV-1 [1]; 60 mg arm): 12% (6/50) | Rate of protocol-defined virologic failure (PDVF) (HIV-1 [1]; 120 mg arm): 10% (5/52) | Rate of protocol-defined virologic failure (PDVF) (HIV-1 [1]; 180 mg arm): 6% (3/51) | Mean time to onset of first diarrhea event ([2]; 60 mg arm): 48.4 days | Mean time to onset of first diarrhea event ([2]; 120 mg arm): 19.9 days | Mean duration of first diarrhea event ([2]; 120 mg arm (longest)): 104.2 days | Mean time to onset of first diarrhea event ([2]; 180 mg arm): 11.3 days | SAE considered related to study drug ([2]; GSK3532795 120 mg (no action taken), EFV (led to discontinuation)): Grade 3 abdominal pain | Grade 1–4-related abdominal pain [2, 18]: 6–16% | Grade 1–4-related diarrhea [2, 18]: 27–51% | Adverse events leading to discontinuation [2, 19]: 5% | Serious adverse events [2, 19]: 5% | Frequency of Grade 1–4-related AEs ([2]; GSK3532795 arms pooled, EFV 600 mg, through Week 24): 53% | Increase in systemic exposure with dose ([3]; dose range 60–180 mg, with food and TDF/FTC): less than dose-proportional | Time at which median steady-state plasma concentrations reached peak ([3]; multiple doses 60, 120 or 180 mg with food and TDF/FTC): 4–5 hours post-dose | pEC50 (93 subtype B viruses): 8.66 | pEC50 (HIV-1 clinical isolates; PBMCs, CRF01_AE subtype, N = 7, ref protocol Section 1.4.1.2): 7.11 | Fold less susceptible, CRF01_AE (clade AE) compared to clade B (HIV-1 clinical isolates; in vitro, ref protocol Section 1.4.1): 2-3 fold | Protein binding [4]: 86% and 86.1% | pEC50 ([5]; V362I plus secondary change-containing viruses, read-out: EC50, median): 7.60 | Loss of susceptibility ([5]; virus with the A364V change): > 100 fold | Direct inhibition of HIV-1 protease (HIV-1 protease): does not directly inhibit HIV-1 protease | pIC50 (CYP3A4): 4.49 | P-gp inhibition (P-gp): No P-gp inhibition | pIC50 (OATP1B3): 5.40 | Inhibition of P gp, NTCP, OAT1, OAT3, MRP2, and BSEP [6]: not an inhibitor | Phototoxicity, mutagenicity, clastogenicity in vitro [7]: not phototoxic, mutagenic, or clastogenic | pIC50 [8]: < 5.30 | Bioavailability lower relative to 80 mg SDD suspension [9]: approximately 23% | Impact of high fat meal on Cmax [9]: negligible impact | Increase in C24 with a high fat meal relative to fasted [9]: approximately 70% | Increase in Cmax relative to fasted ([10]; all three meal types): approximately 2 fold | Increase in AUC relative to fasted ([10]; high fat meal): 2.5 fold | Increase in AUC relative to fasted ([10]; standard meal): 2.1 fold | Metabolism in human in vitro systems (cytochrome P450 (CYP)3A4): primarily mediated via cytochrome P450 (CYP)3A4 | Activity against RT, protease, and integrase inhibitor-resistant viruses ([11]; EC50 values similar to wild-type, ref protocol Section 1.4.1.2): retains complete activity | Activity against a panel of PI-resistant isolates from PI-treated subjects ([11]; major and minor PI-resistance determinants in protease and Gag): maintained activity | Reduction of antiviral activity (HIV-1 [12]): approximately 4 fold | P-gp substrate status [13]: substrate of mouse P-glycoprotein (P-gp) | Blood pressure and electrocardiogram ([14]; at 20 mg/kg, ref protocol Section 1.4.1.2): unaffected | No-observed-effect level (NOEL/NOAEL) for cardiovascular effects (heart rate) ([14]; dog, in vivo): 2 mg/kg | AUC at lowest dose with effects [15]: 71 gh/mL | Increase in serum ALT activity ([16]; 20 mg/kg/day, 1 female, ref protocol Section 1.4.1.2): 2.10 × pretest | Loss of body weight ([16]; 20 mg/kg/day, 2 females, ref protocol Section 1.4.1.2): up to 8% | NOAEL ([16]; dog, in vivo): 8 mg/kg/day | NOAEL dose (heart rate) ([16]; dog, in vivo): 20 mg/kg/day | AUC at developmental NOAEL ([17]; 30 mg/kg/day, ref protocol Section 1.4.1.2): 114 gh/mL | Developmental NOAEL ([17]; rat, in vivo): 30 mg/kg/day | Developmental toxicity classification ([17]; rats, ref protocol Section 1.4.1.2): not a selective developmental toxicant
